According to ChEMBL document CHEMBL1201862, “PubChem BioAssay data set” (2004):
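Each compound was tested at five concentrations against cells in 96-well plates for 48 hours. Abbreviation: GI50, concentration required for 50% inhibition of growth.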 Calls of active or inactive are those of the source. No stated cut-off is given here; in the data, active = GI50 up to about 1.1 µM and inactive = higher.

What was measured:
Assay in all cases: NCI-60 cell line screen, 48 h
A498 = system: A498
DLD-1 = system: DLD-1
CAKI-1 = system: CAKI-1
LXFL 529 = system: LXFL 529
OVCAR-8 = system: OVCAR-8
SK-MEL-5 = system: SK-MEL-5
CCRF-CEM = system: CCRF-CEM
U-251 = system: U-251
DMS-273 = system: DMS-273
OVCAR-5 = system: OVCAR-5
SF-295 = system: SF-295
DMS-114 = system: DMS-114
LOX IMVI = system: LOX IMVI
DU-145 = system: DU-145

Row | Compound | GI50 (A498) | GI50 (DLD-1) | GI50 (CAKI-1) | GI50 (LXFL 529) | GI50 (OVCAR-8) | GI50 (SK-MEL-5) | GI50 (CCRF-CEM) | GI50 (U-251) | GI50 (DMS-273) | GI50 (OVCAR-5) | GI50 (SF-295) | GI50 (DMS-114) | GI50 (LOX IMVI) | GI50 (DU-145)
1 | CC(=O)NNc1nc(C)c(C(=O)/C=C/c2cccc([N+](=O)[O-])c2)s1 | > 100 µM (inactive) | > 100 µM (inactive) | > 100 µM (inactive) | > 100 µM (inactive) | > 100 µM (inactive) | > 100 µM (inactive) | > 100 µM (inactive) | > 100 µM (inactive) | > 100 µM (inactive) | > 100 µM (inactive) | > 100 µM (inactive) | > 100 µM (inactive) | > 100 µM (inactive) | 
2 | CC1CCC2(CC1)NN=c1s/c(=C\c3ccc(O)cc3)c(=O)n1N2 (stereo not given) |  | > 100 µM (inactive) |  | > 100 µM (inactive) | > 100 µM (inactive) | > 100 µM (inactive) | > 100 µM (inactive) | > 100 µM (inactive) | > 100 µM (inactive) |  | > 100 µM (inactive) | > 100 µM (inactive) | 81.8 µM (inactive) | 
3 | O=C(c1ccccc1)c1nnn(Cc2cccc(Cl)c2)c1C(=O)c1ccccc1 |  | > 100 µM (inactive) | 98.2 µM (inactive) | 97.5 µM (inactive) | > 100 µM (inactive) | 88.3 µM (inactive) | > 100 µM (inactive) | > 100 µM (inactive) | > 100 µM (inactive) | > 100 µM (inactive) | > 100 µM (inactive) | 78 µM (inactive) | > 100 µM (inactive) | 
4 | C/C(CC(=O)Nc1cc(Cl)c(Cl)cc1Cl)=N\NC(N)=O |  | > 100 µM (inactive) |  | > 100 µM (inactive) | > 100 µM (inactive) | > 100 µM (inactive) | > 100 µM (inactive) | > 100 µM (inactive) | > 100 µM (inactive) | > 100 µM (inactive) | > 100 µM (inactive) | > 100 µM (inactive) | > 100 µM (inactive) | 
5 | CC1(C)OC2C(CO)OC(N/C(=N/C#N)Oc3ccccc3)C2O1 (stereo not given) |  | > 100 µM (inactive) |  | > 100 µM (inactive) | > 100 µM (inactive) | > 100 µM (inactive) | > 100 µM (inactive) | > 100 µM (inactive) | > 100 µM (inactive) | > 100 µM (inactive) | > 100 µM (inactive) | > 100 µM (inactive) | > 100 µM (inactive) | 
6 | CNC(=S)N(C)C(=S)Nn1c(=O)c(C)nn(C)c1=S | > 100 µM (inactive) | > 100 µM (inactive) |  | > 100 µM (inactive) | > 100 µM (inactive) | > 100 µM (inactive) | > 100 µM (inactive) | > 100 µM (inactive) | > 100 µM (inactive) | > 100 µM (inactive) | > 100 µM (inactive) | > 100 µM (inactive) | > 100 µM (inactive) | 
7 | [O-]c1c2c(nn1-c1ccc(F)cc1)c1ccccc1c[n+]2Cc1ccccc1 | 30.9 µM (inactive) | 11 µM (inactive) | 18.8 µM (inactive) | 0.448 µM (active) | 12.8 µM (inactive) | 3.96 µM (inactive) | 0.401 µM (active) | 16.4 µM (inactive) |  | 11.9 µM (inactive) | 14.6 µM (inactive) | 10.8 µM (inactive) |  | 
8 | Cc1ccc(NC(=O)SCCC(=O)O)cc1 | > 100 µM (inactive) | > 100 µM (inactive) | > 100 µM (inactive) | > 100 µM (inactive) | > 100 µM (inactive) |  | > 100 µM (inactive) | > 100 µM (inactive) | > 100 µM (inactive) | > 100 µM (inactive) | > 100 µM (inactive) | > 100 µM (inactive) | > 100 µM (inactive) | 
9 | CCN1C(=O)N2C(OC)c3ccccc3C(Br)C2(OC)C1=O (stereo not given) | > 100 µM (inactive) | > 100 µM (inactive) | > 100 µM (inactive) | > 100 µM (inactive) | > 100 µM (inactive) | > 100 µM (inactive) | > 100 µM (inactive) | > 100 µM (inactive) | > 100 µM (inactive) | > 100 µM (inactive) | > 100 µM (inactive) | > 100 µM (inactive) | > 100 µM (inactive) | 
10 | Cn1c(=O)c2ccccc2c2nc3ccccc3nc21 |  |  |  | > 100 µM (inactive) | > 100 µM (inactive) | > 100 µM (inactive) |  | > 100 µM (inactive) | > 100 µM (inactive) | > 100 µM (inactive) | 59.2 µM (inactive) | > 100 µM (inactive) |  | 
11 | COC(=O)C1=C(\O)C[C@@]2(C)CC[C@@H](C(=O)OC)C2C/C=C\1C(=O)OC (stereo not given in full) | 23 µM (inactive) | > 100 µM (inactive) | > 100 µM (inactive) | 62.2 µM (inactive) | > 100 µM (inactive) | 48.9 µM (inactive) | > 100 µM (inactive) | > 100 µM (inactive) | > 100 µM (inactive) | 46.3 µM (inactive) | > 100 µM (inactive) | 29.4 µM (inactive) | > 100 µM (inactive) | 
12 | CCOC(=O)NC(=O)c1cn(CCCCCCOC(=O)NCCCCCCNC(=O)OCCCCCCn2cc(C(=O)NC(=O)OCC)c(=O)[nH]c2=O)c(=O)[nH]c1=O | > 100 µM (inactive) | > 100 µM (inactive) | > 100 µM (inactive) | > 100 µM (inactive) | > 100 µM (inactive) | > 100 µM (inactive) | > 100 µM (inactive) | > 100 µM (inactive) | > 100 µM (inactive) |  | > 100 µM (inactive) | 67.9 µM (inactive) | > 100 µM (inactive) | 
13 | COc1ccc(S(=O)(=O)N/N=C/CN2C(=O)c3ccccc3C2=O)cc1OC | > 100 µM (inactive) | > 100 µM (inactive) | > 100 µM (inactive) | > 100 µM (inactive) | > 100 µM (inactive) | > 100 µM (inactive) | > 100 µM (inactive) | > 100 µM (inactive) | > 100 µM (inactive) |  | > 100 µM (inactive) | > 100 µM (inactive) | > 100 µM (inactive) | 
14 | C[C@]12CCC(=O)C=C1CC[C@@H]1C2CC[C@]2(C)Nc3[nH]ncc3CC12 (stereo not given in full) | > 100 µM (inactive) | > 100 µM (inactive) | > 100 µM (inactive) | > 100 µM (inactive) | > 100 µM (inactive) | > 100 µM (inactive) | > 100 µM (inactive) | > 100 µM (inactive) | > 100 µM (inactive) | > 100 µM (inactive) | 94.2 µM (inactive) | > 100 µM (inactive) |  | 
15 | CCOC(=O)C1C=C2O[C@@H]3OC4(CCCCC4)O[C@@H]3C2[C@H]2C(=O)C=CC(=O)[C@@]12C(=O)OC (stereo not given in full) | 18.3 µM (inactive) | 16.6 µM (inactive) | 16 µM (inactive) | 10.7 µM (inactive) | 6.41 µM (inactive) | 19.2 µM (inactive) | 2.84 µM (inactive) | 8.69 µM (inactive) | 8.65 µM (inactive) | 17.1 µM (inactive) | 18.2 µM (inactive) | 4.75 µM (inactive) | 15.5 µM (inactive) | 
16 | O=C(Nc1ccccc1-c1n[nH]c(S)nc1=O)C(F)(F)F |  | > 100 µM (inactive) | > 100 µM (inactive) | > 100 µM (inactive) | > 100 µM (inactive) | > 100 µM (inactive) | > 100 µM (inactive) | > 100 µM (inactive) | > 100 µM (inactive) | > 100 µM (inactive) | > 100 µM (inactive) | > 100 µM (inactive) | > 100 µM (inactive) | 
17 | CC(C)=CC1CC(=[N+]=[N-])C(=O)C1(C)C (stereo not given) | > 100 µM (inactive) | > 100 µM (inactive) | > 100 µM (inactive) | > 100 µM (inactive) | > 100 µM (inactive) | > 100 µM (inactive) | > 53 µM (inactive) | > 100 µM (inactive) |  | > 100 µM (inactive) | > 100 µM (inactive) | > 58.3 µM (inactive) | > 75.7 µM (inactive) | 
18 | O=c1nc2n(c3nsnc13)CCO2 |  | > 100 µM (inactive) | > 100 µM (inactive) | > 100 µM (inactive) | > 100 µM (inactive) | > 100 µM (inactive) | > 100 µM (inactive) | > 100 µM (inactive) | > 100 µM (inactive) | > 100 µM (inactive) |  | 36.6 µM (inactive) | > 100 µM (inactive) | 
19 | COC(=O)c1c(-c2ccccc2)cc2c3cc(-c4ccccc4)c(C(=O)OC)n3c3ccccc3n12 | > 100 µM (inactive) | > 100 µM (inactive) | > 100 µM (inactive) | > 100 µM (inactive) | > 100 µM (inactive) | > 100 µM (inactive) | > 100 µM (inactive) | > 100 µM (inactive) | 79.3 µM (inactive) | > 100 µM (inactive) | > 100 µM (inactive) | > 100 µM (inactive) | > 100 µM (inactive) | 
20 | CCC1=C(C[C@H]2NCCc3cc(OC)c(OC)cc32)C[C@H]2c3cc(OC)c(OC)cc3CCN2C1 | 0.0181 µM (active) | 0.0296 µM (active) | 0.0312 µM (active) | 0.0316 µM (active) | 0.0272 µM (active) | 0.0234 µM (active) |  | 0.031 µM (active) | 0.0274 µM (active) | 0.0521 µM (active) | 0.0331 µM (active) | 0.0166 µM (active) |  | 
21 | O=C(Nc1ccn(CCOC(=O)c2ccccc2)c(=O)n1)c1ccccc1 | > 100 µM (inactive) |  | > 100 µM (inactive) | > 100 µM (inactive) | > 100 µM (inactive) | > 100 µM (inactive) | > 100 µM (inactive) | > 100 µM (inactive) | > 100 µM (inactive) | > 100 µM (inactive) | > 100 µM (inactive) | > 100 µM (inactive) | > 100 µM (inactive) | 
22 | O=CN/C=C/c1ccccc1O | > 100 µM (inactive) | > 100 µM (inactive) | > 100 µM (inactive) | > 100 µM (inactive) | > 100 µM (inactive) | > 100 µM (inactive) | > 100 µM (inactive) | > 100 µM (inactive) | > 100 µM (inactive) | > 100 µM (inactive) | > 100 µM (inactive) | > 100 µM (inactive) | > 100 µM (inactive) | > 100 µM (inactive)
